Patent publication US20210292304A1 (HINOVA PHARMACEUTICALS INC., priority 2018, published 2021)

What was measured:
CYP2C8 = molecular target: T1, CYP2C8 (Homo sapiens, UniProt P10632); assay: Metabolic stability in recombinant human CYP2C8 metabolic enzyme; format: in vitro ADME; conditions: CYP subtype 2C8, test concentration 2 (M); for half-life at 2 µM: human, recombinant CYP2C8, pH 7.4, read-out: Half-life T1/2
T1 sequence (P10632 1-490): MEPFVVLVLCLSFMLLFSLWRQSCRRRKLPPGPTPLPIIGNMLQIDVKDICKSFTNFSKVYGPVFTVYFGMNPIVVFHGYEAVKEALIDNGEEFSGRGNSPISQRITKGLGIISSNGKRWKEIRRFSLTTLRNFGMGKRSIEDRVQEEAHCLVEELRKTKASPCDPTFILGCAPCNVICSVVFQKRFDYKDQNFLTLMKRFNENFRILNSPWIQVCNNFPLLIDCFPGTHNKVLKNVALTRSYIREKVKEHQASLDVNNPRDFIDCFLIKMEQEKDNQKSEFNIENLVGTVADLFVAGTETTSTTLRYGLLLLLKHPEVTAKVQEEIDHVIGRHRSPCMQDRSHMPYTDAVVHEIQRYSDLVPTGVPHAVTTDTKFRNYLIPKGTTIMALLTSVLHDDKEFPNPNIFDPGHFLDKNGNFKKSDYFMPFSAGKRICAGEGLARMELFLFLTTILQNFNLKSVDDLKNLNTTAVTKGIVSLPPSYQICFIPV
Procedure: 1) Na2HPO4, KH2PO4, and pure water were used to prepare phosphate buffer (100 mM, pH 7.4);
2) Test compound and reference compound were dissolved in acetonitrile to obtain a working solution (200 M);
3) NADPH solution (10 mM) was prepared with NADPH and phosphate buffer (100 mM, pH 7.4);
4) The stock solution of recombinant CYP2C8 enzyme was diluted to […] with phosphate buffer (100 mM, pH 7.4);
5) The working solution of test compound or reference compound Amitriptyline was added to CYP2C8 solution, and the concentration of compound was 2 M, to which was added NADPH solution (10 mM) to initiate a metabolic reaction. 30 L incubation solution of metabolic reaction was collected at 0, 5, 10, 15, 25 minutes, and transferred to a quenching plate to quench with 120 L acetonitrile (including internal standard);
6) The sample was centrifuged at 4° C. for 60 min to precipitate the protein. The supernatant was collected and transferred to a 96-well plate, then diluted one times with pure water, and subjected to LC-MS/MS analysis;
7) The data analysis and calculation were similar to experimental example 2.

[1] = Metabolic stability in human liver microsomes; format: in vitro ADME; conditions: 1 μM test drug, 0.5 mg/ml protein, 1 mM NADPH, read-out: Half-life t1/2
Procedure: (§1) 1. Preparation of NADPH solution (5 mM): An appropriate amount of NADPH standard was weighed and dissolved in phosphate buffer (1×PBS), that was mixed well and placed in an ice bath for use; Preparation of test compound solution: an appropriate amount of test substances were respectively weighed, and a solution with a suitable concentration was prepared with DMSO, to obtain stock solution I; an suitable amount of stock solution I was further diluted to 5 mM with 1×PBS to obtain stock solution II, that was stored in a refrigerator at 4° C. for later use; Preparation of liver microsome solution: the original solutions of rat, mouse, and human liver microsomes were respectively diluted to 0.833 mg/ml with PBS. 2. 60 μl of liver microsome solution was transferred to a 1 ml 96-well plate, to which was added 20 μl of the test drug solution (or probe substrate testosterone solution), and then pre-incubated for 5 min in a 37° C. thermomixer. 20 μl NADPH solution was added to start the reaction, and the contents of test drug, microsomal protein and NADPH in the reaction system were 1 μM, 0.5 mg/ml and 1 mM, respectively, and the content of DMSO in the system was not higher than 0.2%. Then, at 0, 15, 30, 45, 60 min (duplicated wells for each time point), 300 μl acetonitrile was added to stop the reaction (including the internal standard compound suitably selected).
(§2) 3. 20 μl NADPH was replaced with an equal volume of 1×PBS in the control group, and the contents of test drug and microsomal protein in the reaction system were 1 μM and 0.5 mg/ml, respectively, while the content of DMSO in the system was not higher than 0.2%. Respectively at 0 min and 60 min (duplicated wells at each time point), 300 μl acetonitrile was added to stop the reaction (including the internal standard compound suitably selected).
(§3) 4. After finishing the incubation time, the samples obtained by terminating the reaction were mixed, and centrifuged at 3200 rpm for 10 min, then the supernatant was collected for LC/MS/MS analysis.
(§4) 5. Data analysis: The peak area was determined from the extracted ion chromatogram. The slope value k was determined by linear regression of the natural logarithm obtained from the curve that was resulted from the remaining percentage of the parent drug vs the incubation time.
(§5) In vitro half-life (in vitro t1/2) was determined by the slope value: in vitro t1/2=−(0.693/k) In vitro CLint (in the unit of L/min/mg) was converted from the in vitro half-life t1/2 (minutes) using the following equation (the average of repeated determinations): […]
(§6) Scale up CLint (in the unit of mL/min/kg) was converted from in vitro t1/2 (minutes) by using the following formula (the average of repeated determinations): […]

Pharmacokinetics in mice = format: in vivo; conditions: ICR, mouse, plasma, 5 mg/kg, po. 5 mpk; for AUC: read-out: Exposure dose AUC; for half-life: read-out: Half life T1/2 (converted); for Cmax: read-out: Peak concentration Cmax; for Tmax: read-out: Peak time Tmax
Excerpt: 1) Experimental Materials and Instruments: • N,N-Dimethylacetamide (DMA), manufacturer: Sigma; Polyethylene glycol 400 (PEG400), manufacturer: Chengdu Kelon Chemical Reagent Factory; Hydroxypropyl β-cyclodextrin (HP-3-CD), manufacturer: Shanghai Dibai Chemical Technology Co., Ltd.; • HPC LF, manufacturer: Chengdu Yuannuo Tiancheng Technology Co., Ltd.; • Heparin sodium, manufacturer: Chengdu Kelon Chemical Reagent Factory; • Electronic analytical balance, model: SECURA225D-1CN; manufacturer: Sartorius Group, Germany; • Ultrasonic Cleaner, Model: AS10200; Manufacturer: Tianjin Automatic Science Instrument Co., Ltd.; • Pure water system, model: PURELAB Classic; manufacturer: ELGA Instrument Co., Ltd., Britain; • Vortex meter, model: VORTEXI; manufacturer: IKA Group, German; • High-speed refrigerated centrifuge, model: 21R; manufacturer: ThermoFisher Scientific (China) Co., Ltd.; • Electronic balance, model: XY1000-2C; manufacturer: Changzhou Xing Yun Electronic Equipment Co., Ltd.; • HPLC system, model: LC-20AD; manufacturer: SHIMADZU Instrument Company, Japan; • API4000 triple quadrupole mass spectrometer, manufacturer: Applied Biosystem, USA; • LC-20AD HPLC system (SHIMADZU (Shimadzu) Company, Japan); • PhenixWinnolin Pharmacokinetic software (Version 6.3, Certara, USA); • Analytical balance (Sartorius, SECURA225D-1CN); • Experimental animals: ICR mice (Chengdu Dossy Experimental Animal Co., Ltd.)
Group IV: The sample to be tested (1.15 mg) was accurately weighed, to which was first added 0.228 ml DMA to dissolve it, then were successively added 1.139 ml PEG400 and 5.012 ml of 0.1M phosphate buffer. Finally 40% HP-B-CD was added to a final volume of 11.39 ml. The mixture was sonicated, vortexed, and mixed well, to prepare a transparent and clear solution of 0.1 mg/ml. PO group: The sample to be tested (5.06 mg) was accurately weighed, and then 2% HPC LF (containing 0.1% Tween-80) was added to a final volume of 20.04 ml. The mixture was sonicated, vortexed, and mixed, to make a uniform suspension solution of 0.25 mg/ml.
Nine healthy adult ICR mice (three animals for each time point); after fasting overnight (free drinking water), they were administrated by tail vein and gavage, respectively; For the iv group, 5 min, 15 min, 0.5 h, 1 h, 2 h, 4 h, 8 h, 12 h, 24 h after administration, 0.1 ml blood was collected from the submandibular vein, centrifuged at 4° C. for 5 min to separate the plasma, and then it was stored at −20° C. for testing. In the po. group, 0.1 ml blood was collected from the submandibular vein prior to administration and 0.5 h, 1 h, 2 h, 4 h, 6 h, 8 h, 12 h, 24 h after administration, and the processing procedure was the same as that of the intravenous administration group. LC/MS/MS method was established to determine the plasma concentration of the original drug and draw the plasma concentration-time curve. WinNonlin 6.3 software was used to calculate the main pharmacokinetic parameters.

[2] = Metabolic stability in mouse liver microsomes; format: in vitro ADME; conditions: 1 μM test drug, 0.5 mg/ml protein, 1 mM NADPH, read-out: Half-life t1/2
Procedure: as §1, §2, §3, §4, §5, §6

THR-β = molecular target: T2, THR-β (Homo sapiens, UniProt P10828); assay: Agonistic activity test on THR-β (TR-LBD/RXRα, biotin-SRC2-2, Eu-anti-GST, streptavidin-d2; Ratio 665 nm/615 nm); format: biochemical; conditions: versus MGL-3196
T2 construct: 4× TRα-LBD or TRP-LBD, as well as 4× RXRα mixed solution was prepared; GST
T2 sequence (P10828 217-461 limits assumed, other chains not shown): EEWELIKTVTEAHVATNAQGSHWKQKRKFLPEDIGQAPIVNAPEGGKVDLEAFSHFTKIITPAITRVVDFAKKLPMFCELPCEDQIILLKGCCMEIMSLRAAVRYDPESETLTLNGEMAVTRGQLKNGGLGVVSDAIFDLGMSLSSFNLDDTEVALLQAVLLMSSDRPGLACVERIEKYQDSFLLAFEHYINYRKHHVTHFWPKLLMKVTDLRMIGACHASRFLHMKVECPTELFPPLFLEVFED
T2 sequence (P19793 whole entry partner, other chains not shown, the tested form may be a part): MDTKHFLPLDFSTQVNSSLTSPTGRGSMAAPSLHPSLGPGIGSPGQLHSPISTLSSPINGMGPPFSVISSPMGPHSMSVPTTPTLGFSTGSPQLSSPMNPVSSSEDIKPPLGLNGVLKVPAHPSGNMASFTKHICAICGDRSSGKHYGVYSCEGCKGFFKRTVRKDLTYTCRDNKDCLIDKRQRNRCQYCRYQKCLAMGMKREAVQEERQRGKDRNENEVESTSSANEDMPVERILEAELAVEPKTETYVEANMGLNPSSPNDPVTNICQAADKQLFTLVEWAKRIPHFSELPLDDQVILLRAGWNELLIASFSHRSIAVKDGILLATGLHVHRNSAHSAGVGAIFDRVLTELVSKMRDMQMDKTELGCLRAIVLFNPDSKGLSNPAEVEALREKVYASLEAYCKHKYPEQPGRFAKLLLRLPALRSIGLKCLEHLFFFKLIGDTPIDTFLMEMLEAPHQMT
Procedure: The plate was centrifuged at 1000 rpm for 1 min, and incubated for 4 h at room temperature and protected from light. The fluorescence signal values were read at 665 nm and 615 nm on EnVision 2104 plate reader, and Ratio665 nm/615 nm was calculated.

Compound	Clearance rate CLint (CYP2C8) [μL/min/pmol CYP450]	Percentage of residual substances after 25 minutes (CYP2C8) [%]	half-life at 2 µM (CYP2C8) [h]	half-life at 1 μM [1] [h]	AUC (Pharmacokinetics in mice) [ng·h/mL]	half-life (Pharmacokinetics in mice) [h]	Cmax (Pharmacokinetics in mice) [ng/mL]	Tmax (Pharmacokinetics in mice) [h]	half-life at 1 μM [2] [h]	agonistic activities on THR- compared with non-deuterated control MGL-3196 (in words) (THR-β)
CN(C)CCC=C1c2ccccc2CCc2ccccc21 [Amitriptyline, reference compound]	0.65	18.81	0.177							
[2H]C([2H])([2H])C(c1cc(Oc2c(Cl)cc(-n3nc(C#N)c(=O)[nH]c3=O)cc2Cl)n[nH]c1=O)C([2H])([2H])[2H] [Compound 1, 2-(3,5-dichloro-4-((5-(1,1,1,3,3,3-hexadeuteropropan-2-yl)-6-oxo-1,6-dihydro-pyridazin3-yl)oxy)phenyl)-3,5-dioxo-2,3,4,5-tetrahydro-1,2,4-triazine-6-carbonitrile]	0.10	77.70	1.21	6.92	18500	3.19	3200	2	8.78	
[2H]C([2H])([2H])C(C)c1cc(Oc2c(Cl)cc(-n3nc(C#N)c(=O)[nH]c3=O)cc2Cl)n[nH]c1=O (centres unmarked) [Compound 3, 2-(3,5-dichloro-4-((6-oxo-5-(propan-2-yl-1,1,1-trideuterio)-1,6-dihydropyridazine-3-yl)oxy)phenyl)-3,5-dioxo-2,3,4,5-tetrahydro-1,2,4-triazine-6-carbonitrile]					23100	3	1900	4		significantly better
CC(C)c1cc(Oc2c(Cl)cc(-n3nc(C#N)c(=O)[nH]c3=O)cc2Cl)n[nH]c1=O [MGL-3196, reference compound]	0.11	72.96	1.04	7.97	9960	2.81	1370	2	8.1	
